According to US20130096107A1, “USE OF AMINODIHYDROTHIAZINES FOR THE TREATMENT OR PREVENTION OF DIABETES” (Hoffmann-La Roche Inc., priority 2009, published 2013):
Entries after “also recorded” stand apart in the source; their conditions may differ.

Legend:
[1] = system: BACE2 (Tmem27 cleavage) in isolated human pancreatic islets; details: 200 nM, 72 h, islets from two human donors
Protocol: Freshly isolated human islets from two different donors (male, 51 years, BMI: 27.5 kg/m2; […], BMI: 22.2 kg/m2; circa 3000 islets per donor) were obtained from Dr. D. Bosco (Cell Isolation and Transplantation Center, Department of Surgery, Geneva, Switzerland) and maintained in CMRL-1066 (Invitrogen) at 5.6 mmol/l glucose supplemented with 10% FCS, 100 U/ml penicillin, 100 μg/ml streptomycin and 100 μg/ml gentamycin (Sigma) for 2 days before experiments. The present investigation was approved by the institutional ethics committee. […] Islets were collected by centrifugation and total proteins were extracted using CELYA lysis buffer CLB1 (Cat*9000, Zeptosens) following the manufacturer's protocol.
Total islet proteins (10 μg) were fractionated by NuPAGE 4-12% Bis-TrisGel (Cat*NP0321Box, Invitrogen) and transferred to nitrocellulose using iBlot system (Cat*IB3010-01, Invitrogen).

[2] = system: pancreas of ZDF rats; assay: Assessment of β-cell function by in situ pancreas perfusion (glucose-stimulated insulin secretion); type: in vivo, rat
Protocol: (§1) Body weight and food intake were monitored daily. Blood glucose was measured weekly in all rats. After 3 weeks of treatment an oGTT was performed on 6 overnight fasted rats per groups. At about week 4 and after anesthesia, 2 to 3 ZDF rats per day and per group underwent pancreas surgery and in-situ pancreas perfusion with low/high glucose conditions. 120 eluted fractions per rat were collected for glucose and insulin quantification.
Rats were anesthetized (Temgesic (0.1 ml/100 g) first, then anesthetic cocktail: Ketamine (77 mg/kg), Xylazine (11 mg/kg), i.p. injection, volume 2 ml/kg). Pancreas was surgically isolated from other connecting organs and from nerves and veins and artery afferences and efferences, keeping access to abdominal aorta and portal vein which are both cannulated. Once surgery was done, rats were placed into a temperature controlled box (37° C.) and pancreata were connected to infusion pumps via abdominal aorta.
The glucose-stimulated insulin secretion (GSIS) was obtained by perfusing pancreata with Krebs-Ringer buffer containing low/high glucose concentration as described into protocol designed in FIG. 7. Basically, pancreata were first perfused with freshly prepared Krebs-Ringer solution (5 ml/min) containing low glucose concentration (2.8 mM) for about 30 minutes, stabilizing basal insulin secretion. Then, the first stimulation with high glucose concentration solution (16.7 mM) was given to sensitize the pancreata, leading to modest phase 1 and phase 2 insulin secretion.
Pancreas elution fractions were collected in 96-well plates (via a catheter introduced into the portal vein) at regular time intervals and immediately cooled down to 4° C. and subsequently stored at −20° C. until analyzed. At least, 120 eluted fractions per rat were collected for measurement of glucose and insulin levels.

[3] = system: Zucker Diabetic Fatty (ZDF) rats; assay: Oral glucose tolerance test (oGTT) after chronic treatment of ZDF rats; type: in vivo, rat
Protocol: This study was conducted with male ZDF rats [ZDF/gmiCrl fa/fa] and lean rats [ZDF/gmiCrl fa/+] (Charles River Laboratories, Sulzfeld, Germany). The ZDF rats are a commonly used model of human type 2 diabetes characterized by insulin resistance, β-cell defects and hyperglycemia. Onset of diabetes in males is at the age of 8 to 10 weeks when fed a diabetogenic diet. All rats (ZDF and Lean rats) with an age of 6 weeks at the beginning of the experiment are fed a special diet (“PURINA PMI 5008”, ZDF_diet=Ssniff R/M−H) and housed 1 per cage (type 3). Ambient temperature is approximately 21° C. and relative humidity 55-65%. A 12 hours light-dark cycle is maintained in the rooms with all tests being performed during the light phase. Access to food and tap water is ad libitum.
as §1
An oGTT was conducted on day 18 of treatment. After on overnight fast of approximately 16 h post treatment, rats were given a glucose load of 2 g/kg by gavage. Blood samples were collected immediately prior to glucose challenge (0 min) and +10, +30, +60 and +120 min after glucose challenge and blood glucose and other plasma parameters were determined.
Blood glucose was measured with a blood glucose monitoring system (Accu-Chek Aviva, Roche Diagnostics GmbH, Rotkreuz, Switzerland). Insulin was measured by ELISA, using the Mercodia Rat Insulin ELISA (Mercodia AB, Uppsala, Sweden).
Data were analyzed using the software SAS/JMP for Windows (version 6.0.0, SAS Institute Inc., Cary, N.C.). Data were expressed as mean±SEM (standard error of the mean). The number of rats was 6 per group. Comparison was made versus Vehicle, using Analysis of Variance ANOVA followed by post hoc Dunnett's test.

`C[C@@]1(c2cc(NC(=O)c3ccc(Cl)cn3)ccc2F)CCSC(N)=N1` (single isomer, unassigned) [Example 1] was tested, and the “full-length TMEM27 (immunoblot)” value [1] was “stabilized the full length of TMEM27; also recorded: preservation of full-length TMEM 27”, the “AUC off-response of insulin secretion (perfused pancreas)” value ([2]; 30 mg/kg, 3 to 4 weeks of treatment, after high glucose 16.7 mM, versus vehicle) was “reduced” and the “basal insulin secretion (perfused pancreas)” value ([2]; 30 mg/kg, 3 to 4 weeks of treatment, low glucose 2.8 mM, versus vehicle) was “reduced”. The “insulin secretion profile (Phase 1/Phase 2)” value ([2]; ZDF rats, chronic treatment, in situ pancreas perfusion) was “normalized the insulin secretion profile (Phase 1/Phase 2)”, the “Insulin AUC (0-120 minutes) during oGTT” value ([3]; 8.5 week old ZDF rats treated 17 days, 0.2, 5, 30 mg/kg p.o.) was “dose-dependent increase in insulin levels without reaching significance” and the fasting insulin levels ([3]; 8.5 week old ZDF rats treated 17 days, Example 1 p.o., Liraglutide 0.4 mg/kg s.c.) was “did not change fasting insulin levels compared to vehicle”. For the same compound, the “insulin levels during oGTT (post glucose challenge)” value ([3]; 8.5 week old ZDF rats treated 17 days, glucose 2 g/kg, Example 1 0.2, 5, 30 mg/kg p.o., Liraglutide 0.4 mg/kg s.c.) was “increased insulin levels (at peak and up to 60 minutes post glucose challenge); also recorded: dose-dependent increase in insulin levels secreted during oGTT”, the “fasting blood glucose (FBG) after overnight fasting” value ([3]; 8.5 week old ZDF rats, Example 1 0.2-5-30 mg/kg p.o., Liraglutide 0.4 mg/kg s.c., 17 days) was “trend to reduce fasting blood glucose after overnight fasting conditions (FBG) without reaching significance” and the “efficacy in oGTT compared with Liraglutide” value ([3]; Example 1 30 mg/kg p.o. versus Liraglutide 0.4 mg/kg s.c., chronic treatment) was “close to that induced by chronic treatment with Liraglutide”. For the same compound, the post-challenged glucose levels ([3]; ZDF rats after 17 days of oral treatment (summary)) was “reduced post-challenged glucose levels”, the “improvement of glucose tolerance (blood glucose during oGTT)” value ([3]; ZDF rats, 30 mg/kg p.o. daily for 17 days, versus vehicle) was “reached significance at 30′, 60′ and 120′ post glucose challenge” and the “glucose area under the curve (AUC 0-120 minutes) during oGTT” value ([3]; ZDF rats, 0.2, 5, 30 mg/kg p.o. daily for 17 days, oGTT day 18, versus vehicle) was “dose-dependently reduced; also recorded: dose dependent reduction of glucose AUC reaching significant values at 30 mg/kg”.
